# Measurements: PubChem BioAssay (NCI)
#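 96-well plates; 48 h exposure; 5 concentrations. Endpoints by linear interpolation between flanking doses. Not reached: highest tested concentration assigned. GI50 is the concentration that inhibits growth by half. TGI marks complete inhibition of growth.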
# Tests used:
# Experiment in all cases: NCI-60 cell line screen, 48 h
# UACC-257 melanoma = tested on: UACC-257 melanoma
# UO-31 renal = tested on: UO-31 renal
# NCI-H522 lung = tested on: NCI-H522 lung
# MDA-MB-231 breast = tested on: MDA-MB-231 breast
# TK-10 renal = tested on: TK-10 renal
# SN12C renal = tested on: SN12C renal
# MOLT-4 leukemia = tested on: MOLT-4 leukemia
# RPMI-8226 leukemia = tested on: RPMI-8226 leukemia
# OVCAR-4 ovarian = tested on: OVCAR-4 ovarian
# LOX IMVI melanoma = tested on: LOX IMVI melanoma
Structure (SMILES),TGI (UACC-257 melanoma),TGI (UO-31 renal),TGI (NCI-H522 lung),TGI (MDA-MB-231 breast),TGI (TK-10 renal),TGI (SN12C renal),TGI (MOLT-4 leukemia),TGI (RPMI-8226 leukemia),TGI (OVCAR-4 ovarian),TGI (LOX IMVI melanoma),GI50 (MDA-MB-231 breast)
CN(C)CCNC(=O)c1cccc2nc3c(nc12)-c1ccccc1C3=O,34.6 µM,39.1 µM,30.7 µM,23.8 µM,56.6 µM,28.9 µM,7.52 µM,33.6 µM,58.2 µM,12.7 µM,
O=C1c2c(nc3ccccc3c2-c2ccccc2)CN1Nc1ccccn1,> 100 µM,51.6 µM,> 100 µM,> 100 µM,> 100 µM,> 100 µM,> 100 µM,> 100 µM,> 100 µM,> 100 µM,
CCOC(=O)CNC(=O)C(C)NC(=O)C(NC(=O)CC(c1ncc[nH]1)c1ncc[nH]1)C(C)CC (stereo unspecified),> 100 µM,> 100 µM,> 100 µM,> 100 µM,> 100 µM,> 100 µM,> 100 µM,> 100 µM,> 100 µM,> 100 µM,
COC(=O)/C=C/c1cc(O)c2c(c1)[C@H](C(=O)OC)[C@@H](c1ccc(O)c(O)c1)O2,> 100 µM,> 63.5 µM,0.838 µM,> 100 µM,> 100 µM,> 74.1 µM,> 45.7 µM,> 41 µM,> 100 µM,> 82.6 µM,0.0497 µM
CCOC(=O)/C=C(/C(=O)OCC)n1cc(C)c(=O)n(Cc2cn(COCCOC(C)=O)nn2)c1=O,49.9 µM,7.99 µM,6.9 µM,50.9 µM,29.2 µM,59.8 µM,> 61.2 µM,57.7 µM,40 µM,47.8 µM,
O=C1Cc2c([nH]c3ccc(Br)cc23)-c2ccccc2N1,> 100 µM,> 100 µM,> 100 µM,> 100 µM,> 100 µM,> 100 µM,> 100 µM,> 100 µM,> 100 µM,> 100 µM,
O=[N+]([O-])c1ccc(N=Nc2c(O)c(S(=O)(=O)O)cc3cc(S(=O)(=O)O)ccc23)cc1,> 100 µM,> 100 µM,> 100 µM,> 100 µM,> 100 µM,> 100 µM,> 100 µM,> 100 µM,> 100 µM,> 100 µM,
O=C1C=C(Br)c2c(Br)sc(Br)c21,12.6 µM,10.3 µM,3.99 µM,33.9 µM,23.5 µM,38.3 µM,12.2 µM,> 100 µM,34.4 µM,5.77 µM,
COc1cc(/C=C2\N=C(c3ccccc3)N(c3nc4c(OC)ccc(OC)c4s3)C2=O)cc(OC)c1OC,> 100 µM,> 100 µM,> 100 µM,> 100 µM,> 100 µM,> 100 µM,> 100 µM,> 100 µM,> 100 µM,> 100 µM,
O=C(c1ccccc1)c1ccc2nc(-c3c(Cl)c(Cl)c(Cl)c(Cl)c3C(=O)N/N=C/c3ccccc3)[nH]c2c1,85 µM,> 100 µM,55.3 µM,79.2 µM,> 100 µM,60.8 µM,54.1 µM,63 µM,83.5 µM,> 100 µM,
CCc1ccc2[nH]c(O)c(-c3[nH]c4ccccc4c3N=O)c2c1,28.5 µM,12 µM,16 µM,40.7 µM,23.7 µM,18 µM,> 100 µM,> 100 µM,21.8 µM,26.7 µM,
CCCCc1ccc(Nc2ncc3[nH]cnc3n2)cc1,59 µM,37.9 µM,55 µM,30.3 µM,30.9 µM,48.9 µM,> 100 µM,71.2 µM,80.1 µM,37.6 µM,
